Read-outs that look alike come from different tables or passages of the source.
How the values were obtained:
[1] = biological target: T1, AChE (Electrophorus electricus) (Electrophorus electricus, UniProt O42275); test: AChE inhibition, Ellman's method; assay type: biochemical
T1 construct: purchased Sigma-Aldrich (Steinheim, Germany)
Description: (§1) The assay was performed in two steps.
(§2) All enzymes were obtained from Sigma-Aldrich (Steinheim, Germany). Ellman’s reagent and the substrates were obtained from Fluka (Buchs, Switzerland). The chemicals used to prepare the buffer solution were purchased from Merck (Darmstadt, Germany).
(§3) The enzyme inhibitory activities of the synthesized compounds were investigated by applying Ellman’s method. Enzyme solutions were dissolved in gelatin solution (1%; 2.5 units/mL). […] Then, the reaction was initiated by the addition of Ellman’s reagent 5,5′-Dithiobis(2-nitrobenzoic acid) (DTNB; 20 µL/well, 10 mM) and the substrate (10 µL/well, 75 mM). […] The enzyme solution was processed as a control. All readings were adjusted with blank-reading. All assays were performed in four independent wells. […] Absorbance differences between the two readings were taken, and percentage inhibition rates were calculated according to the following formula: % Inhibition=[(A(C)−A(B))−(A(I)−A(B))]/(A(C)−A(B))×100.
(§4) • Blank (B): the well in which the inhibitor compound and substrate were not added; • Control (C): the well where the inhibitor compound was not added; • A(B): the difference in absorbance reading for the blank; • A(C): the difference in absorbance reading for the control; • A(I): the difference in absorbance reading for the inhibitor compounds.

[2] = biological target: T2, AChE (Human) (Homo sapiens, UniProt P22303); test: AChE inhibition, Ellman's method; assay type: biochemical
T2 construct: purchased Sigma-Aldrich (Steinheim, Germany)
Description: as §1, §2, §3, §4

[3] = biological target: T3, BChE (Equine) (Equus caballus, UniProt P81908); test: biochemical; assay type: biochemical
T3 construct: purchased Sigma-Aldrich (Steinheim, Germany)
Description: as §1, §2, §3, §4

[4] = biological target: T4, BChE (Human) (Homo sapiens, UniProt P06276); test: BChE inhibition, Ellman's method; assay type: biochemical
T4 construct: purchased Sigma-Aldrich (Steinheim, Germany)
Description: as §1, §2, §3, §4

[5] = test system: murine fibroblast healthy cell line (NIH3T3); test: MTT cell viability assay; assay type: cell-based; details: 24 h, 0.000316 µM to 1000 µM, read-out: IC50 against NIH3T3
Description: The active compounds (4a, 4b, 4e, 4i, 4m, 4n, 4o, and 4t) were chosen to determine their cytotoxic activity toward a murine fibroblast healthy cell line (NIH3T3). After incubating the cells with active compounds at concentrations of 0.000316 µM to1000 µM for 24 h, the cell viability was measured using the 3-(4,5-dimethylthiazol-2-yl)-2,5-diphenyltetrazolium (MTT) assay. The inhibition percentage was calculated for each concentration of the test compounds. The IC50 values of the compounds were determined using a non-linear regression analysis over the calculated percentage inhibition values, and they are presented in Table 2. Accordingly, the cytotoxicity test proposed that the active derivatives were nontoxic against NIH3T3 cells at their active concentrations against BChE.
Healthy murine embryonic fibroblast cells (NIH3T3 cell line) were used for the cytotoxicity tests. The cell line and selected compounds were prepared for an MTT assay as reported previously. The optical densities (OD) of 96 well plates were recorded at 540 nm. […]

[6] = read-out: AChE (Electrophorus electricus) inhibitory activity (%) ± SD
[7] = read-out: AChE (Human) inhibitory activity (%) ± SD
[8] = read-out: BChE (Human) inhibitory activity (%) ± SD

T2 sequence (P22303 32-614): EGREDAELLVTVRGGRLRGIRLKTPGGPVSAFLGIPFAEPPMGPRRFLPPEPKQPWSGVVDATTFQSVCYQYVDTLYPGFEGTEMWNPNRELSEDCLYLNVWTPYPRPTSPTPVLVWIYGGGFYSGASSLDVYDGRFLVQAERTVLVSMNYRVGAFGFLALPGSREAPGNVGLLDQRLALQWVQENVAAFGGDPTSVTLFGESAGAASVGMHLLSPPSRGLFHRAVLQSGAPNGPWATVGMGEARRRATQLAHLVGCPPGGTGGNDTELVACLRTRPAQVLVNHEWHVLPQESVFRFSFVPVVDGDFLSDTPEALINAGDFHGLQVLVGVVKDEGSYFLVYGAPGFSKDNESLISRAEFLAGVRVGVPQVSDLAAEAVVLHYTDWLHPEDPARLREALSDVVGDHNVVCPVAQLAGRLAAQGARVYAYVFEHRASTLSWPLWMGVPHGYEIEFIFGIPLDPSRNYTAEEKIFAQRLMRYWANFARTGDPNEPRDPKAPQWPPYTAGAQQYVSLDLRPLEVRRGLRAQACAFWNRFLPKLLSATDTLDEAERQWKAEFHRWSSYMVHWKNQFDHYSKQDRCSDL
T4 sequence (P06276 29-602): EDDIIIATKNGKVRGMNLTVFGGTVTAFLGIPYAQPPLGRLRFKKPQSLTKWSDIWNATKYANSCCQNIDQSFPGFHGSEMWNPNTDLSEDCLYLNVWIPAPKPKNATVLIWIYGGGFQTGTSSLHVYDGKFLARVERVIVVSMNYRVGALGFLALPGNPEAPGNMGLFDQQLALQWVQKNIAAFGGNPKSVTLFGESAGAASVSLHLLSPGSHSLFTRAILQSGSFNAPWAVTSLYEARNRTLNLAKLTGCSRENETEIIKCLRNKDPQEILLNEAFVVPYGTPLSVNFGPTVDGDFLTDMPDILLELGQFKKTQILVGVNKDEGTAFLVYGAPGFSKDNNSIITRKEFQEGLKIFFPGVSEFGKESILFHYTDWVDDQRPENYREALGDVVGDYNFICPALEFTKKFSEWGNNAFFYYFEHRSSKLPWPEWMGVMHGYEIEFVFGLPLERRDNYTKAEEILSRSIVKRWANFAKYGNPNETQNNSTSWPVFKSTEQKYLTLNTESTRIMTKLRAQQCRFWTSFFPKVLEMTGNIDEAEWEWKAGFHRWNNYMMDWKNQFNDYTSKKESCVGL
T3 sequence (P81908 whole entry): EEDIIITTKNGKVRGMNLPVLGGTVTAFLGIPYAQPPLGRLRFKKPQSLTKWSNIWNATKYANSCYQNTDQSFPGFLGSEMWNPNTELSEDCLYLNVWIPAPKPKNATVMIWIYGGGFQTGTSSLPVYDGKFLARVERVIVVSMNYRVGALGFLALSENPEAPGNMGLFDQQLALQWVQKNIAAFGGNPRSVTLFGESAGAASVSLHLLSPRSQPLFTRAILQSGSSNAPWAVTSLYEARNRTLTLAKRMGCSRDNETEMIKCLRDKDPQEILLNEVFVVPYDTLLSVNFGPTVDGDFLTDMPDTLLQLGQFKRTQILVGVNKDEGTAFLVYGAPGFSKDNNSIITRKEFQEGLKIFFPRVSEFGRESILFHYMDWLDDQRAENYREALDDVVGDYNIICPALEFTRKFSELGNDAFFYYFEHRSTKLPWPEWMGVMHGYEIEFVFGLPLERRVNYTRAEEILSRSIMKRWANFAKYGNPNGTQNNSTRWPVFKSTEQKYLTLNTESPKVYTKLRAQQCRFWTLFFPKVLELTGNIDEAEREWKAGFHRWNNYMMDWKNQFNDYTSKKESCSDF
T1 sequence (O42275 24-633): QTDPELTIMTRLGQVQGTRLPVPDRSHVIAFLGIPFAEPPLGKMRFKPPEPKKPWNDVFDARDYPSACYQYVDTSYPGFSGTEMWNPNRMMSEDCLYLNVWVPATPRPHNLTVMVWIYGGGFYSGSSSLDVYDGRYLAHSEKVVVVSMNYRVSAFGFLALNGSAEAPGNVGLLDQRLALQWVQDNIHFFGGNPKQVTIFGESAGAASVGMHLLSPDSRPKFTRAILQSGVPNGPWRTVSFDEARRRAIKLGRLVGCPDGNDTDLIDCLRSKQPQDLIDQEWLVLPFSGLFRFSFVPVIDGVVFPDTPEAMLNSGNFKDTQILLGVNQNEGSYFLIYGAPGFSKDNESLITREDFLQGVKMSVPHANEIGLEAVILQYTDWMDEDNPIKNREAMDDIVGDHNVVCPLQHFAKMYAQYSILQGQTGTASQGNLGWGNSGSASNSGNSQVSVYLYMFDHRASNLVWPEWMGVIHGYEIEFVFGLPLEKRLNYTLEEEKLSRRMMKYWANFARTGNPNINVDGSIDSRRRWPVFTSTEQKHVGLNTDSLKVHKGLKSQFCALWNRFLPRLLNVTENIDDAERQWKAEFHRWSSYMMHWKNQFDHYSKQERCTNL

## CN(C)CCCN1CCN(C(=S)SCC(=O)Nc2c3ccccc3nc3ccccc23)CC1 [Compound 4b, 2-(9-Acridinylamino)-2-oxoethyl 4-(3-(dimethylamino)propyl)piperazine-1-carbodithioate]
[1]; 10^-3 M
  AChE (Electrophorus electricus) inhibitory activity (%) ± SD: 79.95±1.78%
[1]; 10^-4 M
  AChE (Electrophorus electricus) inhibitory activity (%) ± SD: 32.41 ± 1.01%
[2]; 10^-3 M
  AChE (Human) inhibitory activity (%) ± SD: 75.66±1.17%
[2]; 10^-4 M
  AChE (Human) inhibitory activity (%) ± SD: 35.49 ± 1.00%
[3]
  IC50: 264 ± 12 nM
[3]; 10^-3 M
  BChE (Equine) inhibitory activity (%) ± SD: 98.16±3.11%
[3]; 10^-4 M
  BChE (Equine) inhibitory activity (%) ± SD: * 82.50 ± 2.07%
[3]; 10^-5 M
  BChE (Equine) inhibitory activity (%) ± SD: 70.30 ±1.80%
[3]; 10^-6 M
  BChE (Equine) inhibitory activity (%) ± SD: 46.10±0.74%
[3]; 10^-7 M
  BChE (Equine) inhibitory activity (%) ± SD: 41.80±0.81%
[3]; 10^-8 M
  BChE (Equine) inhibitory activity (%) ± SD: 33.04±0.78%
[3]; 10^-9 M
  BChE (Equine) inhibitory activity (%) ± SD: 26.35±0.77%
[4]; 10^-3 M
  BChE (Human) inhibitory activity (%) ± SD: 97.55±2.05%
[4]; 10^-4 M
  BChE (Human) inhibitory activity (%) ± SD: * 84.18 ± 2.21%
[4]; 10^-5 M
  BChE (Human) inhibitory activity (%) ± SD: 72.99 ±1.35%
[4]; 10^-6 M
  BChE (Human) inhibitory activity (%) ± SD: 45.26±0.85%
[4]; 10^-7 M
  BChE (Human) inhibitory activity (%) ± SD: 40.87±0.67%
[4]; 10^-8 M
  BChE (Human) inhibitory activity (%) ± SD: 35.28±0.53%
[4]; 10^-9 M
  BChE (Human) inhibitory activity (%) ± SD: 28.74±0.50%
[4]; read-out: BChE (Human) IC50
  IC50: 222 ± 10 nM
[5]
  IC50: 25600 nM

## O=C(CSC(=S)N1CCN(Cc2ccccc2)CC1)Nc1c2ccccc2nc2ccccc12 [Compound 4k, 2-(9-Acridinylamino)-2-oxoethyl 4-benzylpiperazine-1-carbodithioate]
[1]; 10^-3 M
  AChE (Electrophorus electricus) inhibitory activity (%) ± SD: 58.74±1.69%
[1]; 10^-4 M
  AChE (Electrophorus electricus) inhibitory activity (%) ± SD: 8.62 ± 0.22%
[2]; 10^-3 M
  AChE (Human) inhibitory activity (%) ± SD: 59.17±1.11%
[2]; 10^-4 M
  AChE (Human) inhibitory activity (%) ± SD: 7.21 ± 0.18%
[3]; 10^-3 M
  BChE (Equine) inhibitory activity (%) ± SD: 74.62±2.75%
[3]; 10^-4 M
  BChE (Equine) inhibitory activity (%) ± SD: 25.14 ± 1.42%
[4]; 10^-3 M
  BChE (Human) inhibitory activity (%) ± SD: 70.98±2.39%
[4]; 10^-4 M
  BChE (Human) inhibitory activity (%) ± SD: 20.65 ± 1.20%

## COc1ccc(N2CCN(C(=S)SCC(=O)Nc3c4ccccc4nc4ccccc34)CC2)cc1 [Compound 4h, 2-(9-Acridinylamino)-2-oxoethyl 4-(4-methoxyphenyl)piperazine-1-carbodithioate]
[1]; 10^-3 M
  AChE (Electrophorus electricus) inhibitory activity (%) ± SD: 30.87±1.01%
[1]; 10^-4 M
  AChE (Electrophorus electricus) inhibitory activity (%) ± SD: 15.23 ± 0.69%
[2]; 10^-3 M
  AChE (Human) inhibitory activity (%) ± SD: 35.77±1.62%
[2]; 10^-4 M
  AChE (Human) inhibitory activity (%) ± SD: 18.39 ± 0.57%
[3]; 10^-3 M
  BChE (Equine) inhibitory activity (%) ± SD: 84.02±2.35%
[3]; 10^-4 M
  BChE (Equine) inhibitory activity (%) ± SD: 12.64 ± 0.46%
[4]; 10^-3 M
  BChE (Human) inhibitory activity (%) ± SD: 80.88±2.05%
[4]; 10^-4 M
  BChE (Human) inhibitory activity (%) ± SD: 15.58 ± 0.67%

## O=C(CSC(=S)N1CCN(C2CCCCC2)CC1)Nc1c2ccccc2nc2ccccc12 [Compound 4l, 2-(9-Acridin-ylamino)-2-oxoethyl 4-cyclohexylpiperazine-1-carbodithioate]
[1]; 10^-3 M
  AChE (Electrophorus electricus) inhibitory activity (%) ± SD: 56.11±2.46%
[1]; 10^-4 M
  AChE (Electrophorus electricus) inhibitory activity (%) ± SD: 3.90 ± 0.09%
[2]; 10^-3 M
  AChE (Human) inhibitory activity (%) ± SD: 58.33±1.39%
[2]; 10^-4 M
  AChE (Human) inhibitory activity (%) ± SD: 7.29 ± 0.18%
[3]; 10^-3 M
  BChE (Equine) inhibitory activity (%) ± SD: 84.88±3.34%
[3]; 10^-4 M
  BChE (Equine) inhibitory activity (%) ± SD: 45.88 ± 1.62%
[4]; 10^-3 M
  BChE (Human) inhibitory activity (%) ± SD: 85.71±2.40%
[4]; 10^-4 M
  BChE (Human) inhibitory activity (%) ± SD: 42.60 ± 1.53%

## CCN1CCN(C(=S)SCC(=O)Nc2c3ccccc3nc3ccccc23)CC1 [Compound 4c, 2-(9-Acridinylamino)-2-oxoethyl 4-ethylpiperazine-1-carbodithioate]
[1]; 10^-3 M
  AChE (Electrophorus electricus) inhibitory activity (%) ± SD: 50.73±2.21%
[1]; 10^-4 M
  AChE (Electrophorus electricus) inhibitory activity (%) ± SD: 5.11 ± 0.09%
[2]; 10^-3 M
  AChE (Human) inhibitory activity (%) ± SD: 51.25±1.45%
[2]; 10^-4 M
  AChE (Human) inhibitory activity (%) ± SD: 10.28 ± 0.22%
[3]; 10^-3 M
  BChE (Equine) inhibitory activity (%) ± SD: 45.18±0.94%
[3]; 10^-4 M
  BChE (Equine) inhibitory activity (%) ± SD: 22.70 ± 0.70%
[4]; 10^-3 M
  BChE (Human) inhibitory activity (%) ± SD: 50.23±0.88%
[4]; 10^-4 M
  BChE (Human) inhibitory activity (%) ± SD: 20.55 ± 0.61%

## Nc1c2ccccc2nc2ccccc12 [Aminoacridine, 9-aminoacridine, reference compound]
[1]; [6]
  inhibition at 0.001 µM: 16 ± 0.48%
  inhibition at 0.01 µM: 20.4 ± 0.55%
  inhibition at 0.1 µM: 31.6 ± 0.82%
  inhibition at 1 µM: 41.7 ± 0.97%
  inhibition at 10 µM: 59 ± 1.05%
  inhibition at 100 µM: 75.2 ± 1.15%
  inhibition at 1000 µM: 85.2 ± 1.08%
[2]; [7]
  inhibition at 0.001 µM: 16.7 ± 0.37%
  inhibition at 0.01 µM: 21.6 ± 0.42%
  inhibition at 0.1 µM: 35.8 ± 0.67%
  inhibition at 1 µM: 44.3 ± 0.74%
  inhibition at 10 µM: 55.3 ± 0.82%
  inhibition at 100 µM: 78.2 ± 0.89%
  inhibition at 1000 µM: 87.2 ± 0.97%
[3]
  IC50: 233 ± 9 nM
[3]; 10^-3 M, read-out: BChE (Equine) inhibitory activity (%) ± SD
  inhibition at 1000 µM: 91.2 ± 1.2%
[3]; 10^-4 M, read-out: BChE (Equine) inhibitory activity (%) ± SD
  inhibition at 100 µM: 87.3 ± 1.07%
[3]; 10^-5 M, read-out: BChE (Equine) inhibitory activity (%) ± SD
  inhibition at 10 µM: 71.5 ± 1.02%
[3]; 10^-6 M, read-out: BChE (Equine) inhibitory activity (%) ± SD
  inhibition at 1 µM: 56.3 ± 0.97%
[3]; 10^-7 M, read-out: BChE (Equine) inhibitory activity (%) ± SD
  inhibition at 0.1 µM: 42.8 ± 0.63%
[3]; 10^-8 M, read-out: BChE (Equine) inhibitory activity (%) ± SD
  inhibition at 0.01 µM: 30.1 ± 0.48%
[3]; 10^-9 M, read-out: BChE (Equine) inhibitory activity (%) ± SD
  inhibition at 0.001 µM: 24.9 ± 0.5%
[4]
  IC50: 221 ± 7 nM
[4]; [8]
  inhibition at 0.001 µM: 22.7 ± 0.48%
  inhibition at 0.01 µM: 31.9 ± 0.62%
  inhibition at 0.1 µM: 46.8 ± 0.7%
  inhibition at 1 µM: 53.3 ± 0.99%
  inhibition at 10 µM: 74.3 ± 1.08%
  inhibition at 100 µM: 86.1 ± 1.22%
  inhibition at 1000 µM: 90.4 ± 1.04%

## CN1CCN(C(=S)SCC(=O)Nc2c3ccccc3nc3ccccc23)CC1 [Compound 4g, 2-(9-Acridinylamino)-2-oxoethyl 4-methylpiperazine-1-carbodithioate]
[1]; 10^-3 M
  AChE (Electrophorus electricus) inhibitory activity (%) ± SD: 26.90±0.83%
[1]; 10^-4 M
  AChE (Electrophorus electricus) inhibitory activity (%) ± SD: 10.44 ± 0.66%
[2]; 10^-3 M
  AChE (Human) inhibitory activity (%) ± SD: 30.85±0.65%
[2]; 10^-4 M
  AChE (Human) inhibitory activity (%) ± SD: 11.30 ± 0.58%
[3]; 10^-3 M
  BChE (Equine) inhibitory activity (%) ± SD: 78.11±2.24%
[3]; 10^-4 M
  BChE (Equine) inhibitory activity (%) ± SD: 33.65 ± 0.89%
[4]; 10^-3 M
  BChE (Human) inhibitory activity (%) ± SD: 80.29±2.40%
[4]; 10^-4 M
  BChE (Human) inhibitory activity (%) ± SD: 35.97 ± 0.80%

## O=C(CSC(=S)N1CCN(c2ccccc2)CC1)Nc1c2ccccc2nc2ccccc12 [Compound 4f, 2-(9-Acridinylamino)-2-oxoethyl 4-phenylpiperazine-1-carbodithioate]
[1]; 10^-3 M
  AChE (Electrophorus electricus) inhibitory activity (%) ± SD: 77.65±2.42%
[1]; 10^-4 M
  AChE (Electrophorus electricus) inhibitory activity (%) ± SD: 4.70 ± 0.27%
[2]; 10^-3 M
  AChE (Human) inhibitory activity (%) ± SD: 74.28±1.04%
[2]; 10^-4 M
  AChE (Human) inhibitory activity (%) ± SD: 8.71 ± 0.62%
[3]; 10^-3 M
  BChE (Equine) inhibitory activity (%) ± SD: 77.60±1.60%
[3]; 10^-4 M
  BChE (Equine) inhibitory activity (%) ± SD: 12.80 ± 0.87%
[4]; 10^-3 M
  BChE (Human) inhibitory activity (%) ± SD: 75.23±1.25%
[4]; 10^-4 M
  BChE (Human) inhibitory activity (%) ± SD: 15.67 ± 0.79%

Source: publication PMC6222329 (Molecules : A Journal of Synthetic Chemistry and Natural …, 2018)
